Experimental data from PubChem BioAssay AID504669 (Sanford-Burnham Center for Chemical Genomics, 2011).

Biological target: Breast cancer type 1 susceptibility protein (Homo sapiens) + BRCA1-associated RING domain protein 1 (Homo sapiens) (UniProt P38398+Q99728)
Experiment: Brca1-Bard1 BiLC signal decrease – cell-based, luminescence, counter-screen for Mdm2/MdmX interaction inhibitor project, dose response (AID 504669)
Conditions: SaOS-2 Brca1/Bard1 split-luciferase complementation

Sequence of Breast cancer type 1 susceptibility protein (Homo sapiens) + BRCA1-associated RING domain protein 1 (Homo sapiens) (P38398 whole entry, looked up, the tested form may be a part): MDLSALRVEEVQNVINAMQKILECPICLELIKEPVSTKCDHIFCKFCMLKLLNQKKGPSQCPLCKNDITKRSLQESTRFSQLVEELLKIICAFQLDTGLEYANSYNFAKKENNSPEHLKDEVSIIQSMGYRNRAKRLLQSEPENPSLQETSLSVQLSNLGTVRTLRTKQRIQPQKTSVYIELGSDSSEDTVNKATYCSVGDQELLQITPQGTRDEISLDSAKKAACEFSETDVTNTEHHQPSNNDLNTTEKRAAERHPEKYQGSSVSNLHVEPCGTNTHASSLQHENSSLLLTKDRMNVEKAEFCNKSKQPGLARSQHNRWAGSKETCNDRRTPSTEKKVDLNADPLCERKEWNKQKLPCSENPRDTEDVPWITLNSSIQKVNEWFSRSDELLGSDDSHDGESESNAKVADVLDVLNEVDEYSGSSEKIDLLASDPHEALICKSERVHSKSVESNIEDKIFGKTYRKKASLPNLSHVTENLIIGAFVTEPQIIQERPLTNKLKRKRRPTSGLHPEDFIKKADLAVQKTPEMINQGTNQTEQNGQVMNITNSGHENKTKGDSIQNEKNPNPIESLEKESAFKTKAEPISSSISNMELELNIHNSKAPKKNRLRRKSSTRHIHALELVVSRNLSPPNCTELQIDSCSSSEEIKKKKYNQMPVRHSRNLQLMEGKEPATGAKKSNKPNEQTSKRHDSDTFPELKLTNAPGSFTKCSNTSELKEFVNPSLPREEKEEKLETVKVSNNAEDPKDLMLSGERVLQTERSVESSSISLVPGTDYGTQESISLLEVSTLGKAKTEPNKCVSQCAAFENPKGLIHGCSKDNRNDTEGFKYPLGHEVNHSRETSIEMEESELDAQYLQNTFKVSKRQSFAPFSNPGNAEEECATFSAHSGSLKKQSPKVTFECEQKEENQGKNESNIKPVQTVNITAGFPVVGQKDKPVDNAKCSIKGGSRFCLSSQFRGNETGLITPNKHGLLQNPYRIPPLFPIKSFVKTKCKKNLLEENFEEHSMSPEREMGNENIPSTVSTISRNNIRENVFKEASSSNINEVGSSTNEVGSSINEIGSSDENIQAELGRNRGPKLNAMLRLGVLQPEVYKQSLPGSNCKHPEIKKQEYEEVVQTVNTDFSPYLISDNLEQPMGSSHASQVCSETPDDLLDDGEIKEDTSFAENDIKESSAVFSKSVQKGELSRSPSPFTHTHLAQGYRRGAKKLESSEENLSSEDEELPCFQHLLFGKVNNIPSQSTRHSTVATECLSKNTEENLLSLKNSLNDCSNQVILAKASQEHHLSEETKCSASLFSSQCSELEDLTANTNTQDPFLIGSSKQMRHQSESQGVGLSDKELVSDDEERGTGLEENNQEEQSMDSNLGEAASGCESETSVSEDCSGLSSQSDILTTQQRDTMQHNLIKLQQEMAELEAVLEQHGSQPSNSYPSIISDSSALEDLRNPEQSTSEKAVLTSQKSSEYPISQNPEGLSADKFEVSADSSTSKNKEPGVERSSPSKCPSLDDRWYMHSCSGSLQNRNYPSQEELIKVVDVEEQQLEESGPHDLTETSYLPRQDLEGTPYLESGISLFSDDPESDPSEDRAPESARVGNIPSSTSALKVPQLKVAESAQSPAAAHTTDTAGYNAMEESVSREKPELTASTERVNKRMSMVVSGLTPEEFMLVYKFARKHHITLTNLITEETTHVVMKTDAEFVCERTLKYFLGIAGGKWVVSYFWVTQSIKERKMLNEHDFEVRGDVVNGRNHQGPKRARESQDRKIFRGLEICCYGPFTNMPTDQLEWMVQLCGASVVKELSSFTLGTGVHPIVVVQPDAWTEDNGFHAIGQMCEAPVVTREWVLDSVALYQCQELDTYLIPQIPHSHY
Sequence of Breast cancer type 1 susceptibility protein (Homo sapiens) + BRCA1-associated RING domain protein 1 (Homo sapiens) (Q99728 whole entry, looked up, the tested form may be a part): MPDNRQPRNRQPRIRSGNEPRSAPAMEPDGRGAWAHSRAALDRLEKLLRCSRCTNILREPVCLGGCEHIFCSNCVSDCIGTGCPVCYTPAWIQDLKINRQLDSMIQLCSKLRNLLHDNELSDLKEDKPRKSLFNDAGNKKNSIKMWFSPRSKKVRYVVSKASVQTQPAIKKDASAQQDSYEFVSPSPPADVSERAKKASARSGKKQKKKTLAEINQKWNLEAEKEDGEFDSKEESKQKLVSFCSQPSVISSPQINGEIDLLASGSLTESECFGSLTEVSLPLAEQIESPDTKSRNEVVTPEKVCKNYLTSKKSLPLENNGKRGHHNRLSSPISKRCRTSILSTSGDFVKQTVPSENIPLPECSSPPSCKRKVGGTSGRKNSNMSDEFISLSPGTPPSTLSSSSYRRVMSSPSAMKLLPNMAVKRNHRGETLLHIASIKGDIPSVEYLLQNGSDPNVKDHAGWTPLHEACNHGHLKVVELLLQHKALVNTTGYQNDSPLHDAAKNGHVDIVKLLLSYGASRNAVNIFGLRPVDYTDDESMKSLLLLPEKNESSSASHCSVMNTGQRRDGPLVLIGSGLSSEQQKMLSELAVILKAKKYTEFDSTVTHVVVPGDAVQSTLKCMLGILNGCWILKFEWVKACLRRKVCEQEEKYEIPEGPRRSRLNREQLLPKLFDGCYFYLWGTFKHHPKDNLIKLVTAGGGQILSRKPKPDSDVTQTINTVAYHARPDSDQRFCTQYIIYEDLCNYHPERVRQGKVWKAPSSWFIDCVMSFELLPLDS

SMILES	IC50
CCN1C/C(=C/c2ccc(OC)c(O)c2)C(=O)/C(=C/c2ccc(OC)c(O)c2)C1	9.78 µM
CCOC(=O)/C=C/C(=O)OCC(=O)NC(c1ccccc1)c1ccccc1	3.9 µM
CC(C)c1cccc(O)c(=O)c1	3.89 µM
CCOc1cc(N2CCOCC2)c(OCC)cc1NC(=O)COc1cccc2cccnc12	5.07 µM
COc1cc(-c2nc(-c3ccc(NC(=O)c4ccc5c(c4)OCO5)cc3)no2)cc(OC)c1OC	13.4 µM
CC1(C)C(=O)Nc2ccccc2N1C(=O)Cn1ncc(Cl)c(Cl)c1=O	8.39 µM
COCCn1c(C)cc(C2=NNC(=Nc3ccccc3F)SC2)c1C	0.493 µM
C/C(=N\Nc1cc(C)nc(-c2ccccc2O)n1)c1ccccc1O	5.35 µM
Cn1nc([N+](=O)[O-])nc1Sc1nnc(-c2ccccc2)o1	12.3 µM

More lines, in order of falling IC50, values ahead:

IC50	SMILES
14.3 µM	CCOC(=O)c1ccc(Nc2nc(N)c3cc(OC)c(OC)cc3n2)cc1
10.6 µM	COc1ccc(-c2cc3c(=O)n(CC(=O)NCCCN4CCC(N5CCCCC5)CC4)nc(C)n3n2)cc1
10.1 µM	CCN(CC)S(=O)(=O)c1ccc(NC(=O)c2cccnc2Cl)c(NC(=O)c2cccnc2Cl)c1
6.64 µM	O=C(/C=C/c1c(F)cccc1Cl)c1ccc(O)cc1
5.59 µM	Cc1nc(NC2=NCN(CCCN3CCOCC3)CN2)nc2c(C)cccc12
4.85 µM	CC(=O)c1ccc(-c2ccc(C(=O)Nc3nc(-c4ccccn4)cs3)o2)cc1
4.37 µM	O=[N+]([O-])c1ccccc1S(=O)(=O)Nc1cccc2cccnc12
4.13 µM	Cc1cccn2c(=O)c3cc(C(=O)NCCc4ccccc4)c(=N)n(Cc4ccco4)c3nc12
1.97 µM	O=C(CN1CCCc2ccccc21)N/N=C/c1c(O)ccc2ccccc12
1.18 µM	COc1ccc2c(c1)C1(Nc3ccccc3-c3nc4ccccc4n31)C(=O)N2C (stereo not given)
0.00353 µM	O=c1oc2ccccc2cc1-c1cn(-c2ccccc2)c(=S)[nH]1
